Measured values from PMC8079033, “Design, synthesis, anticancer evaluation, and molecular modelling studies of novel tolmetin derivatives as potential VEGFR-2 inhibitors and apoptosis inducers” (Journal of Enzyme Inhibition and Medicinal Chemistry, 2021).

Legend:
[1] = system: 786-0; test: NCI 60-cell line one-dose antiproliferative screen (SRB); assay type: cell-based; settings: Homo sapiens, read-out: growth inhibition % (GI%)
Protocol: (§1) Anticancer activity screening of the newly synthesised compounds was measured in vitro utilising 60 different human tumour cell lines provided by US National Cancer Institute according to previously reported standard procedure[41–43] as follows: Cells are inoculated into 96-well microtiter plates in 100 ml. After cell inoculation, the microtiter plates are incubated at 37 °C, 5% CO2, 95% air, and 100% relative humidity for 24 h prior to addition of experimental compounds. After 24 h, two plates of each cell line are fixed in situ with TCA, to represent a measurement of the cell population for each cell line at the time of compound addition (Tz). Experimental compounds are solubilised in dimethyl sulfoxide at 400-fold the desired final maximum test concentration and stored frozen prior to use. At the time of compound addition, an aliquot of frozen concentrate is thawed and diluted to twice the desired final maximum test concentration with a complete medium containing […] gentamicin. Aliquots of […] of the compounds dilutions are added to the appropriate microtiter wells already containing 100 ml of medium, resulting in the required final compound concentration. Following compound addition, the plates are incubated for an additional 48 h at 37 °C, 5% CO2, 95% air, and 100% relative humidity. For adherent cells, the assay is terminated by the addition of cold trichloroacetic acid (TCA). Cells are fixed in situ by the gentle addition of 50 ml of cold 50% (w/v) TCA (final concentration, 10% TCA) and incubated for […] at 4 °C. The supernatant is discarded, and the plates are washed five times with tap water and air-dried. Sulforhodamine B (SRB) solution (100 ml) at 0.4% (w/v) in 1% acetic acid is added to each well, and plates are incubated for 10 min at room temperature. After staining, the unbound dye is removed by washing five times with 1% acetic acid and the plates are air-dried. The bound stain is subsequently solubilised with a 10 mM trizma base, and the absorbance is read on an automated plate reader at a wavelength of 515 nm. For suspension cells, the methodology is the same except that the assay is terminated by fixing settled cells at the bottom of the wells by gently adding 50 ml of 80% TCA (final concentration, 16% TCA). Using the absorbance measurements [time zero, (Tz), control growth, (C), and test growth in the presence of compound (Ti)], the percentage growth is calculated for each compound. The One-dose data are reported as a mean graph of the percent growth of treated cells. The reported number is growth relative to the no-compound control, and relative to the time zero number of cells. This allows the detection of both growth inhibition and lethality.
(§2) Fifteen newly synthesised compounds were tested for their in vitro antiproliferative activity by the National Cancer Institute (NCI), Maryland, USA[50], under the Developmental Therapeutic Program (DTP)[41]^,[43]^,[51]^,[52]. The tested compounds were evaluated at a concentration of 10 µM on a panel of 60 tumour cell lines representing leukaemia and non-small cell lung, colon, CNS, melanoma, ovarian, renal, prostate, and breast cancers. The antiproliferative activity was presented by the NCI as percent growth of the treated cells and is presented in Table 1 as growth inhibition percentage (GI%) achieved by the tested compounds.

[2] = system: A498; test: as above; assay type: cell-based; settings: Homo sapiens, read-out: growth inhibition % (GI%)
Protocol: as §1, §2

[3] = system: A549/ATCC; test: as above; assay type: cell-based; settings: Homo sapiens, read-out: growth inhibition % (GI%)
Protocol: as §1, §2

[4] = system: ACHN; test: as above; assay type: cell-based; settings: Homo sapiens, read-out: growth inhibition % (GI%)
Protocol: as §1, §2

[5] = system: CAKI-1; test: as above; assay type: cell-based; settings: Homo sapiens, read-out: growth inhibition % (GI%)
Protocol: as §1, §2

[6] = system: EKVX; test: as above; assay type: cell-based; settings: Homo sapiens, read-out: growth inhibition % (GI%)
Protocol: as §1, §2

[7] = system: HCT-116; test: as above; assay type: cell-based; settings: Homo sapiens, read-out: growth inhibition % (GI%)
Protocol: as §1, §2

[8] = system: HCT-15; test: as above; assay type: cell-based; settings: Homo sapiens, read-out: growth inhibition % (GI%)
Protocol: as §1, §2

[9] = system: HL-60 (TB); test: as above; assay type: cell-based; settings: Homo sapiens, read-out: growth inhibition % (GI%)
Protocol: as §1, §2

[10] = system: HOP-62; test: as above; assay type: cell-based; settings: Homo sapiens, read-out: growth inhibition % (GI%)
Protocol: as §1, §2

[11] = system: HOP-92; test: as above; assay type: cell-based; settings: Homo sapiens, read-out: growth inhibition % (GI%)
Protocol: as §1, §2

[12] = system: HS 578 T; test: as above; assay type: cell-based; settings: Homo sapiens, read-out: growth inhibition % (GI%)
Protocol: as §1, §2

[13] = system: IGROV1; test: as above; assay type: cell-based; settings: Homo sapiens, IGROV-1, read-out: growth inhibition % (GI%)
Protocol: as §1, §2

[14] = system: K-562; test: as above; assay type: cell-based; settings: Homo sapiens, K562, read-out: growth inhibition % (GI%)
Protocol: as §1, §2

[15] = system: KM12; test: as above; assay type: cell-based; settings: Homo sapiens, read-out: growth inhibition % (GI%)
Protocol: as §1, §2

[16] = system: LOX IMVI; test: as above; assay type: cell-based; settings: Homo sapiens, read-out: growth inhibition % (GI%)
Protocol: as §1, §2

[17] = system: MALME-3M; test: as above; assay type: cell-based; settings: Homo sapiens, read-out: growth inhibition % (GI%)
Protocol: as §1, §2

[18] = system: MCF7; test: as above; assay type: cell-based; settings: Homo sapiens, read-out: growth inhibition % (GI%)
Protocol: as §1, §2

[19] = system: MDA-MB-231/ATCC; test: as above; assay type: cell-based; settings: Homo sapiens, read-out: growth inhibition % (GI%)
Protocol: as §1, §2

[20] = system: MOLT-4; test: as above; assay type: cell-based; settings: Homo sapiens, read-out: growth inhibition % (GI%)
Protocol: as §1, §2

[21] = system: NCI-H226; test: as above; assay type: cell-based; settings: Homo sapiens, read-out: growth inhibition % (GI%)
Protocol: as §1, §2

[22] = system: NCI-H23; test: as above; assay type: cell-based; settings: Homo sapiens, read-out: growth inhibition % (GI%)
Protocol: as §1, §2

[23] = system: NCI-H460; test: as above; assay type: cell-based; settings: Homo sapiens, read-out: growth inhibition % (GI%)
Protocol: as §1, §2

[24] = system: NCI-H522; test: as above; assay type: cell-based; settings: Homo sapiens, read-out: growth inhibition % (GI%)
Protocol: as §1, §2

[25] = system: NCI/ADR-RES; test: as above; assay type: cell-based; settings: Homo sapiens, read-out: growth inhibition % (GI%)
Protocol: as §1, §2

[26] = system: OVCAR-4; test: as above; assay type: cell-based; settings: Homo sapiens, read-out: growth inhibition % (GI%)
Protocol: as §1, §2

[27] = system: OVCAR-5; test: as above; assay type: cell-based; settings: Homo sapiens, read-out: growth inhibition % (GI%)
Protocol: as §1, §2

[28] = system: OVCAR-8; test: as above; assay type: cell-based; settings: Homo sapiens, read-out: growth inhibition % (GI%)
Protocol: as §1, §2

[29] = system: PC-3; test: as above; assay type: cell-based; settings: Homo sapiens, read-out: growth inhibition % (GI%)
Protocol: as §1, §2

[30] = system: RPMI-8226; test: as above; assay type: cell-based; settings: Homo sapiens, read-out: growth inhibition % (GI%)
Protocol: as §1, §2

[31] = system: SF-268; test: as above; assay type: cell-based; settings: Homo sapiens, read-out: growth inhibition % (GI%)
Protocol: as §1, §2

[32] = system: SF-295; test: as above; assay type: cell-based; settings: Homo sapiens, read-out: growth inhibition % (GI%)
Protocol: as §1, §2

[33] = system: SF-539; test: as above; assay type: cell-based; settings: Homo sapiens, read-out: growth inhibition % (GI%)
Protocol: as §1, §2

[34] = system: SK-MEL-5; test: as above; assay type: cell-based; settings: Homo sapiens, read-out: growth inhibition % (GI%)
Protocol: as §1, §2

[35] = system: SK-OV-3; test: as above; assay type: cell-based; settings: Homo sapiens, read-out: growth inhibition % (GI%)
Protocol: as §1, §2

[36] = system: SN 12 C; test: as above; assay type: cell-based; settings: Homo sapiens, SN12C, read-out: growth inhibition % (GI%)
Protocol: as §1, §2

[37] = system: SNB-19; test: as above; assay type: cell-based; settings: Homo sapiens, read-out: growth inhibition % (GI%)
Protocol: as §1, §2

[38] = system: SNB-75; test: as above; assay type: cell-based; settings: Homo sapiens, read-out: growth inhibition % (GI%)
Protocol: as §1, §2

[39] = system: SR; test: as above; assay type: cell-based; settings: Homo sapiens, read-out: growth inhibition % (GI%)
Protocol: as §1, §2

[40] = system: SW-620; test: as above; assay type: cell-based; settings: Homo sapiens, read-out: growth inhibition % (GI%)
Protocol: as §1, §2

[41] = system: T-47D; test: as above; assay type: cell-based; settings: Homo sapiens, T47D, read-out: growth inhibition % (GI%)
Protocol: as §1, §2

[42] = system: U251; test: as above; assay type: cell-based; settings: Homo sapiens, U-251, read-out: growth inhibition % (GI%)
Protocol: as §1, §2

[43] = system: UACC-257; test: as above; assay type: cell-based; settings: Homo sapiens, read-out: growth inhibition % (GI%)
Protocol: as §1, §2

[44] = system: UACC-62; test: as above; assay type: cell-based; settings: Homo sapiens, read-out: growth inhibition % (GI%)
Protocol: as §1, §2

[45] = system: UO-31; test: as above; assay type: cell-based; settings: Homo sapiens, read-out: growth inhibition % (GI%)
Protocol: as §1, §2

Q: With `Cc1ccc(C(=O)c2ccc(CC(=O)NN=Cc3cc4ccccc4[nH]3)n2C)cc1` [Compound 5e, N′-((1H-Indol-2-yl)methylene)-2–(1-methyl-5–(4-methylbenzoyl)-1H-pyrrol-2-yl) acetohydrazide] as the compound, how does the inhibition at 10 µM [1] read?
A: < 10%

Q: And the inhibition at 10 µM [2]?
A: 10.9%

Q: What about the inhibition at 10 µM [3] of the same compound?
A: < 10%

Q: And the inhibition at 10 µM [4]?
A: < 10%

Q: And the inhibition at 10 µM [5]?
A: 15.8%

Q: And the inhibition at 10 µM [6]?
A: 25.7%

Q: What about the inhibition at 10 µM [7] of the same compound?
A: < 10%

Q: And the inhibition at 10 µM [8]?
A: 12.6%

Q: And the inhibition at 10 µM [9]?
A: < 10%

Q: And the inhibition at 10 µM [10]?
A: 24%

Q: And the inhibition at 10 µM [11]?
A: 10.3%

Q: What about the inhibition at 10 µM [12] of the same compound?
A: < 10%

Q: What about the inhibition at 10 µM [13] of the same compound?
A: 45.5%

Q: And the inhibition at 10 µM [14]?
A: < 10%

Q: And the inhibition at 10 µM [15]?
A: < 10%

Q: What about the inhibition at 10 µM [16] of the same compound?
A: 10.7%

Q: What about the inhibition at 10 µM [17] of the same compound?
A: < 10%

Q: And the inhibition at 10 µM [18]?
A: 22.1%

Q: And the inhibition at 10 µM [19]?
A: 20.5%

Q: And the inhibition at 10 µM [20]?
A: < 10%

Q: And the inhibition at 10 µM [21]?
A: 15.3%

Q: What about the inhibition at 10 µM [22] of the same compound?
A: 15.4%

Q: What about the inhibition at 10 µM [23] of the same compound?
A: < 10%

Q: And the inhibition at 10 µM [24]?
A: 18.9%

Q: And the inhibition at 10 µM [25]?
A: < 10%

Q: And the inhibition at 10 µM [26]?
A: 19.3%

Q: And the inhibition at 10 µM [27]?
A: < 10%

Q: What about the inhibition at 10 µM [28] of the same compound?
A: < 10%

Q: And the inhibition at 10 µM [29]?
A: 10.9%

Q: What about the inhibition at 10 µM [30] of the same compound?
A: < 10%

Q: And the inhibition at 10 µM [31]?
A: < 10%

Q: And the inhibition at 10 µM [32]?
A: < 10%

Q: What about the inhibition at 10 µM [33] of the same compound?
A: < 10%

Q: What about the inhibition at 10 µM [34] of the same compound?
A: < 10%

Q: And the inhibition at 10 µM [35]?
A: 12.1%

Q: What about the inhibition at 10 µM [36] of the same compound?
A: 10.5%

Q: What about the inhibition at 10 µM [37] of the same compound?
A: 17.3%

Q: What about the inhibition at 10 µM [38] of the same compound?
A: 15.3%

Q: And the inhibition at 10 µM [39]?
A: < 10%

Q: And the inhibition at 10 µM [40]?
A: < 10%

Q: And the inhibition at 10 µM [41]?
A: 29.4%

Q: What about the inhibition at 10 µM [42] of the same compound?
A: < 10%

Q: What about the inhibition at 10 µM [43] of the same compound?
A: < 10%

Q: And the inhibition at 10 µM [44]?
A: 15.8%

Q: And the inhibition at 10 µM [45]?
A: 40.4%

Q: What about the melting point of the same compound?
A: 198 to 200 °C
